# Source: ChEMBL document CHEMBL2424610, “Design, synthesis, and evaluation of 4-(substituted)phenyl-2-thioxo-3,4-dihydro-1H-chromino[4,3-d]pyrimidin-5-one and 4-(substituted)phenyl-3,4-dihydro-1H-chromino[4,3-d]pyrimidine-2,5-dione analogs as antitubercular agents” (Med Chem Res, 2013)
# Assays:
# Vero = test: Cytotoxicity against african green monkey Vero cells; assay type: cell-based; conditions: Chlorocebus sabaeus
# [1] = system: Mycobacterium tuberculosis; test: Antitubercular activity against Mycobacterium tuberculosis H37Rv ATCC 27294 assessed as growth inhibition at 128 uM by luminescence-based low oxygen-recovery assay; assay type: functional; conditions: read-out: GI
# [2] = system: Mycobacterium tuberculosis; test: Antitubercular activity against Mycobacterium tuberculosis H37Rv ATCC 27294 assessed as growth inhibition at 128 uM after 4 days by microplate Alamar blue assay; assay type: functional; conditions: H37Rv ATCC 27294, 96 h, read-out: GI
SMILES,IC50 (Vero),inhibition of growth at 128 µM [1],inhibition of growth at 128 µM [2]
COc1ccc(C2NC(=O)Nc3c2c(=O)oc2ccccc32)cc1 (stereo not drawn),119 µM,4%,8%
O=c1oc2ccccc2c2c1C(c1cccc(Br)c1)NC(=S)N2 (stereo not drawn),47.4 µM,59%,12%
COc1cc(C2NC(=O)Nc3c2c(=O)oc2ccccc32)ccc1O (stereo not drawn),> 128 µM,1%,37%
O=C1Nc2c(c(=O)oc3ccccc23)C(c2ccccc2)N1 (stereo not drawn),84.7 µM,17%,0%
COc1cc(C2NC(=S)Nc3c2c(=O)oc2ccccc32)ccc1O (stereo not drawn),> 128 µM,0%,0%
COc1ccc(C2NC(=S)Nc3c2c(=O)oc2ccc(C)cc32)cc1 (stereo not drawn),> 128 µM,1%,0%
O=c1oc2ccccc2c2c1C(c1ccccc1)NC(=S)N2 (stereo not drawn),> 128 µM,20%,10%
COc1ccc(C2NC(=S)Nc3c2c(=O)oc2ccccc32)cc1OC (stereo not drawn),> 128 µM,0%,0%
O=C1Nc2c(c(=O)oc3ccccc23)C(c2ccccc2O)N1 (stereo not drawn),122 µM,37%,45%
COc1ccc(C2NC(=O)Nc3c2c(=O)oc2ccc(C)cc32)cc1 (stereo not drawn),101 µM,62%,58%
COc1ccc(C2NC(=S)Nc3c2c(=O)oc2ccc(C)cc32)cc1OC (stereo not drawn),> 128 µM,14%,9%
Cc1ccc2oc(=O)c3c(c2c1)NC(=S)NC3c1cccc(Br)c1 (stereo not drawn),47.6 µM,61%,32%
O=C1Nc2c(c(=O)oc3ccccc23)C(c2cccc(Br)c2)N1 (stereo not drawn),106 µM,15%,7%
COc1ccc(C2NC(=O)Nc3c2c(=O)oc2ccccc32)cc1OC (stereo not drawn),> 128 µM,0%,0%
COc1ccc(C2NC(=O)Nc3c2c(=O)oc2ccc(C)cc32)cc1OC (stereo not drawn),> 128 µM,35%,55%
COc1ccc(C2NC(=S)Nc3c2c(=O)oc2ccccc32)cc1 (stereo not drawn),> 128 µM,0%,0%
